Experiments:
[1] = molecular target: T1, NanoLuc-tagged LIMK1 and Halo-tagged CRBN (Homo sapiens, UniProt P53667+Q96SW2); assay: NanoBRET cellular ternary complex formation, LIMK1; format: cell-based
T1 construct: CRBN vector in-house NV3391; host or cells: HEK293T
Text: Next, we assessed ternary complex formation for the parent and lead PROTACs in live cells using the NanoBRET proximity assay. A ternary complex assay system was established using NanoLuc-tagged LIMKs and Halo-tagged CRBN. Formation of the ternary complex upon PROTAC addition was quantified by measuring the BRET signal. […] However, they differed in the strength of the ternary complex. […] We also confirmed the differences in ternary complex strength using the orthogonal PROXICapture approach, in which MOLT-4 cell lysate was passed over immobilized FLAG-tagged CRBN preincubated with THNAN69.
Gene encoding LIMK1 (Promega, NV3391) and LIMK2 (Promega, NV1531) proteins cloned in frame with NanoLuc fusion tag at the C-Terminus and gene encoding cereblon (generated in-house) cloned in frame with Halo Tag at the N-Terminus, were used to measure the end-point ternary complex formation between the PROTACs and LIMK1 and LIMK2, respectively. […] To measure BRET, NanoBRET NanoGlo Substrate + Extracellular NanoLuc Inhibitor (Promega, N2162) was added to cells as per the manufacturer’s protocol, and filtered luminescence was measured on a PHERAstar FSX plate reader (BMG Labtech) equipped with a luminescence filter pair (450 nm BP filter (donor) and 610 nm LP filter (acceptor)). […]

LIMK2 = LIMK2 (Homo sapiens, UniProt P53671); assay: Western blot of endogenous LIMK2 in HuCCT1 cells; format: cell-based
Method: HuCCT1 cell line was cultured in Roswell Park Memorial Institute (RPMI) 1640 medium supplemented with GlutaMAX, 10% fetal bovine serum (FBS), and 1% penicillin/streptomycin. The cell line was maintained in an incubator with 5% CO2 at 37 °C. For the treatment, 3 × 10^5 cells were plated and treated with the compounds and DMSO as the control for 6 h. The cells were then lysed using RIPA buffer (50 mM Tris-HCl pH 7.4, 150 mM NaCl, 1% Triton X-100, 1% NaDOC, 0.1% SDS, 1 mM EDTA), freshly supplemented with protease and phosphatase inhibitor cocktails (Sigma-Aldrich, Darmstadt, Germany). After 1 h incubation on ice, the lysates were centrifuged for 30 min at […], and the protein-containing supernatant was collected. The protein concentrations were determined using Protein Assay Dye Reagent Concentrate (Bradford, Bio-Rad, Hercules, CA, USA) and Pre-Diluted Protein Assay Standards: Bovine Serum Albumin (BSA) Set (Thermo Fisher Scientific, Darmstadt, Germany). Then, equal amounts of protein was mixed with Roti-Load 1 dye (Carl Roth, Karlsruhe, Germany) and 4x Laemmli Buffer (Bio-Rad, Hercules, CA, USA), denatured at 95 °C, and run on NuPAGE 4–12% bis-Tris gels (Thermo Fisher Scientific). Proteins were blotted on methanol-activated PVDF Transfer Membranes (Thermo Fisher Scientific) using the wet transfer method with the transfer buffer (Thermo Fisher Scientific) and 20% methanol. Afterward, the membranes were blocked with 5% milk or 3% BSA in 0.1% TBS-T for 1 h at RT and incubated overnight at 4 °C with primary antibodies: GAPDH (catalog no. 2118, Cell Signaling Technology, MA, USA, 1:1000 dilution), LIMK1 (catalog no. 3842, Cell Signaling Technology, 1:1000 dilution), LIMK2 (catalog no. 3845, 1:500 dilution), phospho-Cofilin (catalog no. 3313, Cell Signaling Technology, 1:1000 dilution), Cofilin (catalog no. 5175, Cell Signaling Technology, 1:1000 dilution). Then, the membranes were washed with 0.1% TBS-T and incubated with secondary horseradish-peroxidase (HRP)-conjugated antibody for 2 h (catalog no. 7074, Cell Signaling Technology, 1:3000 dilution). The membranes were washed again with 0.1% TBS-T before they were developed using X-ray films (Fujifilm, Dusseldorf, Germany).

LIMK2, sequence (P53671 whole entry): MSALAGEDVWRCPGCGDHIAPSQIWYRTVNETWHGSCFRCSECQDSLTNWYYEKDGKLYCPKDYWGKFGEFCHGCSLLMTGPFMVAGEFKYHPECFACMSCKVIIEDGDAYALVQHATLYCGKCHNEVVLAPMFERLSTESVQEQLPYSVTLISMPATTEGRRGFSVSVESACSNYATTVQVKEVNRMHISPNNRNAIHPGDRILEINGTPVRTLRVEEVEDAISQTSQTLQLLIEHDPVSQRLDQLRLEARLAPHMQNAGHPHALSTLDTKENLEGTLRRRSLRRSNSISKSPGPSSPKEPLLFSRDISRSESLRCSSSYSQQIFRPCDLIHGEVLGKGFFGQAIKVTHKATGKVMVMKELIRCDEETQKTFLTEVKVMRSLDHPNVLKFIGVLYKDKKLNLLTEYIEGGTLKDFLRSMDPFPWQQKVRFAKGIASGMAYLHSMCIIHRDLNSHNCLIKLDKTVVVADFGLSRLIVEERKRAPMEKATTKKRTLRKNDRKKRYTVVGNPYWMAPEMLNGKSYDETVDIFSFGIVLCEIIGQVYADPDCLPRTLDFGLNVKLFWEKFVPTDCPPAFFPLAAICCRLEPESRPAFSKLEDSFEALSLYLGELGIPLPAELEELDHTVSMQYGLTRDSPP
T1 sequence (P53667 whole entry): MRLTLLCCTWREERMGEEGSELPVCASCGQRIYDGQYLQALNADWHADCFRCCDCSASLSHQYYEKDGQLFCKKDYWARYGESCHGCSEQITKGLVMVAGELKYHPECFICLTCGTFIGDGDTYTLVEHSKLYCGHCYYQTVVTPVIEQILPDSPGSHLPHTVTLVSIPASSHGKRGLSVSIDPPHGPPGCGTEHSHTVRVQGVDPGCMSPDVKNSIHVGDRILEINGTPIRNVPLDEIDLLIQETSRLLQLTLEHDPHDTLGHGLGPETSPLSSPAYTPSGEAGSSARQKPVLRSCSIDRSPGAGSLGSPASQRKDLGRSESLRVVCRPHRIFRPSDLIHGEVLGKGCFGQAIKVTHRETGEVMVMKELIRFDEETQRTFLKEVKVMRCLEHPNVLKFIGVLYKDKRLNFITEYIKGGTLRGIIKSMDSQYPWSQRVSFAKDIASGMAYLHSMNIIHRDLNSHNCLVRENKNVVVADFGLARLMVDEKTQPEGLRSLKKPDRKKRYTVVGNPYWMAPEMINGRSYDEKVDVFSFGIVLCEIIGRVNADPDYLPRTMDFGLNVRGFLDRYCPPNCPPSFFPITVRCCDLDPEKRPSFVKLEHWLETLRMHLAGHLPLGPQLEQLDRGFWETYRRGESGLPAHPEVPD
T1 sequence (Q96SW2 whole entry): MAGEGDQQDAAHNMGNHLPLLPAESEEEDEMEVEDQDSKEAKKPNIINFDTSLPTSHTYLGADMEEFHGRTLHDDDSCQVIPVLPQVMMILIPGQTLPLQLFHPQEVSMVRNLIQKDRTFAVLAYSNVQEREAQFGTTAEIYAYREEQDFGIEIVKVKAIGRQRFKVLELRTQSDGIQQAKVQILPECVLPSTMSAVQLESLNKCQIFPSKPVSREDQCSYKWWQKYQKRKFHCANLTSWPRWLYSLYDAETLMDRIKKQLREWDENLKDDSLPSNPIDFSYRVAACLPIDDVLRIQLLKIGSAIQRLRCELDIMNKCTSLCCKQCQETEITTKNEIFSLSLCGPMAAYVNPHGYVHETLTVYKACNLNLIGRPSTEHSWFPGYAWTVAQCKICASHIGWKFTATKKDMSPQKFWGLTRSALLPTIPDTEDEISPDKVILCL
T1 sequence (Q16531 whole entry partner): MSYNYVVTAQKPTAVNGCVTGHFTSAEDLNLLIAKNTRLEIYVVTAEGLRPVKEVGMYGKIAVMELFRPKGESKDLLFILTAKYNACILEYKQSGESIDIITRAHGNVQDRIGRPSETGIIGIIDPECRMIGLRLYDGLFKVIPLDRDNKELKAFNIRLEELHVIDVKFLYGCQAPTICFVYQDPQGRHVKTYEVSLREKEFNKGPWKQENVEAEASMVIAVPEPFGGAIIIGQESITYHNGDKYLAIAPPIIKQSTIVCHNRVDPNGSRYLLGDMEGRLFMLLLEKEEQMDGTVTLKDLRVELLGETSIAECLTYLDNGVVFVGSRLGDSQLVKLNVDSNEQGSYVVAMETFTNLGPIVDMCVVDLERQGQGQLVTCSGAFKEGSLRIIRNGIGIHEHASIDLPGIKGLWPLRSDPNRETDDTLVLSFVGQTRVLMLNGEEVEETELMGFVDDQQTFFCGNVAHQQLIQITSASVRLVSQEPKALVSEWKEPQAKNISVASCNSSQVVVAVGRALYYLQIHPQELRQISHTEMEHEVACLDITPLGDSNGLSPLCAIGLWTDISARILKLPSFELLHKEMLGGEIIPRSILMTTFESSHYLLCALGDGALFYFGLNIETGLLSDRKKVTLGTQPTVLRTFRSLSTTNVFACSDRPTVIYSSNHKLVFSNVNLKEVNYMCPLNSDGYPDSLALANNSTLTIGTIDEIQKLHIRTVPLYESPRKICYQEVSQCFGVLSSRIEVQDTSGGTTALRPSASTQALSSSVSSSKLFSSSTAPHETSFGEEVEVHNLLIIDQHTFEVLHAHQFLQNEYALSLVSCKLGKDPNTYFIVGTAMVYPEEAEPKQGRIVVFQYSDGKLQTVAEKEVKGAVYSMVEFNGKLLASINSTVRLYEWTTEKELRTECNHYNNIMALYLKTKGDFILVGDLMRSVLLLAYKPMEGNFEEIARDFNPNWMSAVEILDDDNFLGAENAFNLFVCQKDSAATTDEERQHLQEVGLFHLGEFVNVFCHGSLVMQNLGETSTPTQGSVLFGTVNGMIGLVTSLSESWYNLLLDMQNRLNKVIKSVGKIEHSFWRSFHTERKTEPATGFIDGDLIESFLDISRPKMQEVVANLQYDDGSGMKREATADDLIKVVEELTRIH

Structure (SMILES): Cc1c(OCc2cn(CCCCC(=O)Nc3ncc(-c4cc(C(F)F)nn4-c4c(Cl)cccc4Cl)s3)nn2)cccc1N1CCC(=O)NC1=O [22b]
- EC50 [1]: 300 nM
- concentration giving near-complete depletion of endogenous LIMK2 (LIMK2; HuCCT1, 6 h, Western blot): 10 nM
- LIMK2 degradation (Western blot) (LIMK2; HuCCT1, 6 h treatment): strong LIMK2-selective degradation

Source: article PMC13184981, “Discovery and Development of a Potent LIMK2 Isoform-Specific Degrader” (ACS Chemical Biology, 2026)
